This is an account of results in US9040502B2, “Anti-XDR-TB drug, anti-MDR-TB drug, and combination anti-tuberculosis drug” (priority 2008, dated 2015).

Converted amounts (≈) assume the structure as drawn. Like-named read-outs stand apart in the source and are kept apart here.

For orientation: MIC means the lowest concentration that inhibits growth of the organism. Low values mean a more susceptible organism, high ones a less susceptible organism.

In assay [1] the test system is Mycobacterium tuberculosis XDR-TB (0306-0206). The format is cell-based. To be noted: Ratio Method.
The test system of assay [2] is M. tuberculosis XDR-TB (0306-0206). The format is in vivo, Mycobacterium tuberculosis in BALB/c mice. To be noted: BALB/c mice, i.v. infection; s.c., 14 doses; CPZEN-45 6.3-200 mg/kg, SM 25-200 mg/kg; Day 30.
For assay [3], the system named is M. tuberculosis MDR (RFP, INH). Briefly: MIC, agar multiple dilution method (Test Example 2). The format is cell-based. To be noted: Mycobacterium tuberculosis, 336 h.
Assay [4] relates to M. tuberculosis MDR (RFP, INH, KM EB, TH, PAS, EVM). Described as above. As to conditions: Mycobacterium tuberculosis, 336 h. The format is cell-based.
Assay [5] relates to M. tuberculosis MDR (RFP, INH, KM, SM EB, TH). The assay is described as above. The format is cell-based. As to conditions: Mycobacterium tuberculosis, 336 h.
The test system of assay [6] is M. tuberculosis XDR (RFP, INH, KM EB, TH, PAS, EVM, LVFX). Described as above. The format is cell-based. To be noted: Mycobacterium tuberculosis, 336 h.

Regarding `Nc1ccc(C(=O)O)c(O)c1` [PAS, para-amino-salicylic acid], the “Determination (drug sensitivity)” value in assay [1] (drug concentration 0.5 μg/mL) is given as “R”.

As to `C[C@H]1COc2c(N3CCN(C)CC3)c(F)cc3c(=O)c(C(=O)O)cn1c23` [LVFX, levofloxacin], the “Determination (drug sensitivity)” value in assay [1] (drug concentration 1.0 μg/mL) is given as “R”.

In the case of enviomycin [EVM], in assay [1] (drug concentration 20 μg/mL), the “Determination (drug sensitivity)” value is listed as “R”.

Consider `CC[C@@H](CO)NCCN[C@@H](CC)CO` [EB, ethambutol], for which the “Determination (drug sensitivity)” value in assay [1] (drug concentration 2.5 μg/mL) is “R”.

Take `[H]/N=C(/N)N[C@H]1[C@H](O)[C@@H](O)[C@H](O[C@@H]2O[C@@H](C)[C@](O)(C=O)[C@H]2O[C@@H]2O[C@@H](CO)[C@H](O)[C@@H](O)[C@@H]2NC)[C@@H](N/C(N)=N\[H])[C@@H]1O` [SM, streptomycin]: in assay [1] (drug concentration 10 μg/mL), the “Determination (drug sensitivity)” value was “R”. The “Antibacterial effects (number of tuberculosis bacteria in lungs, liver and spleen, FIGS. 3 to 5)” value in assay [2] is listed as “no antibacterial effects”.

As for `N[C@@H]1CON=C1O` [CS, cycloserine], the “Determination (drug sensitivity)” value in assay [1] (drug concentration 30 μg/mL) is listed as “S”.

With `CCc1cc(C(N)=S)ccn1` [TH, ethionamide], in assay [1] (drug concentration 20 μg/mL), the “Determination (drug sensitivity)” value is recorded as “R”.

Take `NNC(=O)c1ccncc1` [INH, isonicotinic acid hydrazide]: in assay [1] (drug concentration 1.0 μg/mL), the “Determination (drug sensitivity)” value is listed as “R”.

With `CCCCc1ccc(NC(=O)C2=CCN(C)[C@@H]([C@H](O[C@@H]3O[C@H](CN)[C@@H](O)[C@H]3O)[C@H]3O[C@@H](n4ccc(=O)[nH]c4=O)[C@H](O)[C@@H]3O)C(=O)N2C)cc1` [CPZEN-45, (S)-2-{[(2S,3R,4S,5R)-(5-aminomethyl-3,4-dihydroxyoxolan-2-yl)oxy][(2S,3S,4R,5R)-5-(2,4-dioxo-1,2,3,4-tetrahydropyrimidin-1-yl)-3,4-dihydroxyoxolan-2-yl]-(S)-methyl}-N-(4-butylphenyl)-1,4-dimethyl-3-oxo-1H-1,4-diazepine-5-carboxamide], the “Antibacterial effects (number of tuberculosis bacteria in lungs, liver and spleen, FIGS. 3 to 5)” value in assay [2] was “antibacterial effects significantly higher than those of SM”. The MIC in assay [3], in assay [4], in assay [5] and in assay [6] was 6.25 µg/mL (≈ 9.07 µM) in each case.

For `NC[C@H]1O[C@H](O[C@H]2[C@H](O)[C@@H](O[C@H]3O[C@H](CO)[C@@H](O)[C@H](N)[C@H]3O)[C@H](N)C[C@@H]2N)[C@H](O)[C@@H](O)[C@@H]1O` [KM, kanamycin], the “Determination (drug sensitivity)” value in assay [1] (drug concentration 20 μg/mL) is “R”.

Consider `CO[C@H]1/C=C/O[C@@]2(C)Oc3c(C)c(O)c4c(O)c(c(/C=N/N5CCN(C)CC5)c(O)c4c3C2=O)NC(=O)/C(C)=C\C=C\[C@H](C)[C@H](O)[C@@H](C)[C@@H](O)[C@@H](C)[C@H](OC(C)=O)[C@@H]1C` [RFP, rifampicin], for which the “Determination (drug sensitivity)” value in assay [1] (drug concentration 40 μg/mL) is on record as “R”. Moreover, the MIC in assay [3], in assay [4], in assay [5] and in assay [6] was over 40 µg/mL each time.
